Residue numbers refer to the chain shown, from its start. Where a SMILES comes first, the peptide text is derived from it. Bridges are numbered along the chain shown (N, C = ends).
Tests used:
Test in all cases: ERK1/2 phosphorylation
Type in all cases: cell-based
hCTR M367A = target: T1, hCTR M367A (Homo sapiens, UniProt P30988, M367A); settings: CV1-FlpIn cells, mean ± S.E.M.; for Emax: pERK maximal response; for EC50: pERK, three-parameter logistic fit
T1 construct: c-Myc (N); expressed in transfected cells
T1 sequence (P30988 25-474 M367A): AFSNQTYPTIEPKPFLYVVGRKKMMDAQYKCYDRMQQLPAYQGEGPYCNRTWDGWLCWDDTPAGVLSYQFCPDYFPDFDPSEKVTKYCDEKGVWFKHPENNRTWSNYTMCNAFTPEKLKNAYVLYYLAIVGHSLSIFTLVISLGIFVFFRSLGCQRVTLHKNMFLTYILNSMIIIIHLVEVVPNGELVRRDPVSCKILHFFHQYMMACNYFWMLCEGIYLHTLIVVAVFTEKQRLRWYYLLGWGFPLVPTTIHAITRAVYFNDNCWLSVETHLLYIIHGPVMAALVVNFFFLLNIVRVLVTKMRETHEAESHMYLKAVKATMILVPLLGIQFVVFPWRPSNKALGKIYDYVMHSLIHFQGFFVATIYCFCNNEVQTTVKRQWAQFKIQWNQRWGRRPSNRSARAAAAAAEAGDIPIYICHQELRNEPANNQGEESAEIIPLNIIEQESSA
Summary of the method: (§1)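 Overnight-plated cells at 2.5 × 10^4/well are stimulated, and ERK1/2 phosphorylation is referenced to the 10% FBS response at 6 min before logistic curve fitting.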

hCTR V358A = target: T2, hCTR V358A (Homo sapiens, UniProt P30988, V358A); settings: CV1-FlpIn cells, mean ± S.E.M.; for Emax: pERK maximal response; for EC50: pERK, three-parameter logistic fit
T2 construct: c-Myc (N); expressed in transfected cells
T2 sequence (P30988 25-474 V358A): T1 sequence (P30988 25-474 M367A) with V334A, A343M
Summary of the method: as §1

hCTR I279A = target: T3, hCTR I279A (Homo sapiens, UniProt P30988, I279A); settings: CV1-FlpIn cells, mean ± S.E.M.; for Emax: pERK maximal response
T3 construct: expressed in transfected cells
T3 sequence (P30988 25-474 I279A): T1 sequence (P30988 25-474 M367A) with I255A, A343M
Summary of the method: as §1

hCTR N365A = target: T4, hCTR N365A (Homo sapiens, UniProt P30988, N365A); settings: CV1-FlpIn cells, mean ± S.E.M.; for Emax: pERK maximal response; for EC50: pERK, three-parameter logistic fit
T4 construct: c-Myc (N); expressed in transfected cells
T4 sequence (P30988 25-474 N365A): T1 sequence (P30988 25-474 M367A) with N341A, A343M
Summary of the method: as §1

hCTR Y372A = target: T5, hCTR Y372A (Homo sapiens, UniProt P30988, Y372A); settings: CV1-FlpIn cells, mean ± S.E.M.; for Emax: pERK maximal response
T5 construct: c-Myc (N); expressed in transfected cells
T5 sequence (P30988 25-474 Y372A): T1 sequence (P30988 25-474 M367A) with A343M, Y348A
Summary of the method: as §1

[1] = pERK, three-parameter logistic fit

EC50 (hCTR M367A) | EC50 (hCTR V358A) | EC50 (hCTR N365A) | EC50 (hCTR Y372A; [1]) | EC50 (hCTR I279A; [1]) | SMILES | Emax (hCTR M367A) | Emax (hCTR V358A) | Emax (hCTR I279A) | Emax (hCTR N365A) | Emax (hCTR Y372A)
107 nM | 32.4 nM | 30.2 nM | – | – | CC(C)C[C@H](NC(=O)CNC(=O)[C@H](C)NC(=O)[C@H](CC(C)C)NC(=O)[C@H](CCCNC(=N)N)NC(=O)[C@H](Cc1cnc[nH]1)NC(=O)[C@@H](NC(=O)[C@@H](NC(=O)[C@@H]1CSSC[C@H](NC(=O)[C@H](C)N)C(=O)N[C@@H](CC(=O)O)C(=O)N[C@@H]([C@@H](C)O)C(=O)N[C@@H](C)C(=O)N[C@@H]([C@@H](C)O)C(=O)N1)C(C)C)[C@@H](C)O)C(=O)N[C@@H](CC(C)C)C(=O)N[C@@H](CO)C(=O)N[C@@H](CCCNC(=N)N)C(=O)N[C@@H](CO)C(=O)NCC(=O)NCC(=O)N[C@H](C(=O)N[C@H](C(=O)N[C@@H](CCCCN)C(=O)N[C@@H](CC(N)=O)C(=O)N[C@@H](CC(N)=O)C(=O)N[C@@H](Cc1ccccc1)C(=O)N[C@H](C(=O)N1CCC[C@H]1C(=O)N[C@H](C(=O)N[C@@H](CC(N)=O)C(=O)N[C@H](C(=O)NCC(=O)N[C@@H](CO)C(=O)N[C@@H](CCCCN)C(=O)N[C@@H](C)C(=O)N[C@@H](Cc1ccccc1)C(N)=O)C(C)C)[C@@H](C)O)C(C)C)C(C)C)C(C)C [hαCGRP] | 78 ± 12% | 39 ± 8% | 97 ± 11% | 52 ± 8% | –
2.75 nM | 2.24 nM | 1.62 nM | 19.1 nM | 2.19 nM | CSCC[C@H](NC(=O)CNC(=O)[C@H](CO)NC(=O)[C@H](Cc1ccccc1)NC(=O)[C@H](CCCNC(=N)N)NC(=O)[C@H](Cc1c[nH]cn1)NC(=O)[C@H](Cc1ccccc1)NC(=O)[C@H](CC(N)=O)NC(=O)[C@H](CC(N)=O)NC(=O)[C@H](CC(C)C)NC(=O)[C@H](CC(N)=O)NC(=O)[C@H](CCCNC(=N)N)NC(=O)[C@H](Cc1c[nH]c2ccccc12)NC(=O)[C@H](Cc1ccc(O)cc1)NC(=O)[C@H](C)NC(=O)[C@H](CO)NC(=O)[C@H](CC(C)C)NC(=O)[C@@H](NC(=O)[C@@H]1CSSC[C@H](N)C(=O)N[C@@H](CO)C(=O)N[C@@H](CC(N)=O)C(=O)N[C@@H](CC(C)C)C(=O)N[C@@H](CO)C(=O)N[C@@H]([C@@H](C)O)C(=O)N1)C(C)C)C(=O)NCC(=O)N[C@@H](Cc1ccccc1)C(=O)NCC(=O)N1CCC[C@H]1C(=O)N[C@@H](CCC(=O)O)C(=O)N[C@H](C(=O)N1CCC[C@H]1C(N)=O)[C@@H](C)O [pCT] (H-CSNLSTCVLSAYWRNLNNFHRFSGMGFGPETP-NH2; disulfide 1-7) | 172 ± 10% | 101 ± 8% | 122 ± 7% | 98 ± 10% | 26 ± 4%
– | – | – | – | – | CC(C)C[C@H](NC(=O)[C@H](CCCCN)NC(=O)CNC(=O)[C@H](CC(C)C)NC(=O)[C@@H](NC(=O)[C@@H]1CSSC[C@H](N)C(=O)N[C@@H](CO)C(=O)N[C@@H](CC(N)=O)C(=O)N[C@@H](CC(C)C)C(=O)N[C@@H](CO)C(=O)N[C@@H]([C@@H](C)O)C(=O)N1)C(C)C)C(=O)N[C@@H](CO)C(=O)N[C@@H](CCC(N)=O)C(=O)N[C@@H](CCC(=O)O)C(=O)N[C@@H](CC(C)C)C(=O)N[C@@H](Cc1c[nH]cn1)C(=O)N[C@@H](CCCCN)C(=O)N[C@@H](CC(C)C)C(=O)N[C@@H](CCC(N)=O)C(=O)N[C@H](C(=O)N[C@@H](Cc1ccc(O)cc1)C(=O)N1CCC[C@H]1C(=O)N[C@@H](CCCNC(=N)N)C(=O)N[C@H](C(=O)N[C@@H](CC(N)=O)C(=O)N[C@H](C(=O)NCC(=O)N[C@@H](CO)C(=O)NCC(=O)N[C@H](C(=O)N1CCC[C@H]1C(N)=O)[C@@H](C)O)[C@@H](C)O)[C@@H](C)O)[C@@H](C)O [sCT] | 130 ± 4% | 150 ± 8% | 126 ± 5% | 84 ± 3% | 39 ± 3%
– | – | – | – | – | CC[C@H](C)[C@H](NC(=O)[C@H](C)NC(=O)[C@@H](NC(=O)[C@H](CCC(N)=O)NC(=O)[C@@H]1CCCN1C(=O)[C@H](Cc1ccccc1)NC(=O)[C@@H](NC(=O)[C@H](Cc1c[nH]cn1)NC(=O)[C@H](Cc1ccccc1)NC(=O)[C@H](CCCCN)NC(=O)[C@H](CC(N)=O)NC(=O)[C@H](Cc1ccccc1)NC(=O)[C@H](CC(=O)O)NC(=O)[C@H](CCC(N)=O)NC(=O)[C@@H](NC(=O)[C@H](Cc1ccc(O)cc1)NC(=O)[C@@H](NC(=O)CNC(=O)[C@H](CC(C)C)NC(=O)[C@H](CCSC)NC(=O)[C@@H]1CSSC[C@H](N)C(=O)NCC(=O)N[C@@H](CC(N)=O)C(=O)N[C@@H](CC(C)C)C(=O)N[C@@H](CO)C(=O)N[C@@H]([C@@H](C)O)C(=O)N1)[C@@H](C)O)[C@@H](C)O)[C@@H](C)O)[C@@H](C)O)C(=O)NCC(=O)N[C@H](C(=O)NCC(=O)N[C@@H](C)C(=O)N1CCC[C@H]1C(N)=O)C(C)C [hCT] | 127 ± 7% | 160 ± 10% | 143 ± 10% | 93 ± 6% | 46 ± 4%
– | – | – | – | – | CC(C)C[C@H](NC(=O)[C@H](CC(N)=O)NC(=O)[C@H](CC(N)=O)NC(=O)[C@H](CO)NC(=O)[C@H](CO)NC(=O)[C@H](CCCNC(=N)N)NC(=O)[C@@H](NC(=O)[C@H](CC(C)C)NC(=O)[C@H](Cc1ccccc1)NC(=O)[C@H](CC(N)=O)NC(=O)[C@H](C)NC(=O)[C@H](CC(C)C)NC(=O)[C@H](CCCNC(=N)N)NC(=O)[C@H](CCC(N)=O)NC(=O)[C@@H](NC(=O)[C@H](C)NC(=O)[C@@H]1CSSC[C@H](NC(=O)[C@@H](N)CCCCN)C(=O)N[C@@H](CC(N)=O)C(=O)N[C@@H]([C@@H](C)O)C(=O)N[C@@H](C)C(=O)N[C@@H]([C@@H](C)O)C(=O)N1)[C@@H](C)O)C(C)C)C(=O)NCC(=O)N1CCC[C@H]1C(=O)N[C@H](C(=O)N[C@@H](CC(C)C)C(=O)N1CCC[C@H]1C(=O)N1CCC[C@H]1C(=O)N[C@H](C(=O)N[C@@H](CC(N)=O)C(=O)N[C@H](C(=O)NCC(=O)N[C@@H](CO)C(=O)N[C@@H](CC(N)=O)C(=O)N[C@H](C(=O)N[C@@H](Cc1ccc(O)cc1)C(N)=O)[C@@H](C)O)C(C)C)[C@@H](C)O)C(C)C [rAmy] | 77 ± 5% | 59 ± 10% | 88 ± 9% | 63 ± 10% | –
